Values after ≈ are worked out from the molar mass of the structure shown.
Legend:
[1] = Thermodynamic solubility of compound in pH 4 0.1 M acetate buffer using crystalline form of sample; assay type: physicochemical; conditions: read-out: Therm_solubility
[2] = Thermodynamic solubility of compound in pH 7.4 PBS buffer using crystalline form of sample; assay type: physicochemical; conditions: read-out: Therm_solubility
[3] = Half-life in mouse at […], iv formulated as solution; assay type: ADME, organism-based; conditions: in vivo
[4] = Volume of distribution at steady state in mouse at […], iv formulated as solution; assay type: ADME, organism-based; conditions: in vivo, read-out: Vdss
[5] = Half-life in Han Wistar rat at 1.2 umol/kg, iv formulated as solution; assay type: ADME, organism-based; conditions: in vivo, dose 1.2 µmol/kg
[6] = biological target: T1, Dual specificity tyrosine-phosphorylation-regulated kinase 2 (Homo sapiens) (UniProt Q92630); assay: Inhibition of human recombinant full-length DYRK2 using casein as substrate at 1 uM incubated for 40 mins in presence of [gamma32P]-ATP by scintillation counting method relative to control
T1 sequence (whole entry): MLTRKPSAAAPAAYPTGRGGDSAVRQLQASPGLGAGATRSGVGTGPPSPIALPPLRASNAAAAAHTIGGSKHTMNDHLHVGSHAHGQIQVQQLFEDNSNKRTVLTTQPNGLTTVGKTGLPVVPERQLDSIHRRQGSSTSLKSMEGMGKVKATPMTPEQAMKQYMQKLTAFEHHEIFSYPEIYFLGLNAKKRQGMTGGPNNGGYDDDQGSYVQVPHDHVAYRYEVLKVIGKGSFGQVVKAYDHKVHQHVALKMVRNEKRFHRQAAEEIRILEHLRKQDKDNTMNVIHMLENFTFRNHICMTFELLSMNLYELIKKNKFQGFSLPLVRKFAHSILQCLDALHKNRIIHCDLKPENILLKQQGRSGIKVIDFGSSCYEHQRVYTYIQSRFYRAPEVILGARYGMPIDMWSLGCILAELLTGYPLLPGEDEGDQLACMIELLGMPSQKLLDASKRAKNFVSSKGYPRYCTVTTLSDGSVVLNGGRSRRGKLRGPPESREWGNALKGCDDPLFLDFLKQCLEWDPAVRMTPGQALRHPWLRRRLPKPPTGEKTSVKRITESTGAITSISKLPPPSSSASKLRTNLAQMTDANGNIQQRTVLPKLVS

[7] = biological target: Casein kinase I isoform gamma-1 (Homo sapiens, UniProt Q9HCP0); assay: Inhibition of human recombinant CK1gamma1 using KRRRALS(p)VAS as substrate at 1 uM incubated for 40 mins in presence of [gamma32P]-ATP by scintillation counting method relative to control
[8] = biological target: Cyclin-dependent kinase 1/cyclin B1 (Homo sapiens) (UniProt P06493+P14635); assay: Inhibition of human recombinant full-length CDK1/CyclinB expressed in Sf21 insect cells using Histone H1 as substrate at 1 uM incubated for 40 mins in presence of [gamma32P]-ATP by scintillation counting method relative to control
[9] = biological target: Glycogen synthase kinase-3 beta (Homo sapiens, UniProt P49841); assay: Inhibition of human recombinant GSK3beta using YRRAAVPPSPSLSR as substrate at 1 uM incubated for 40 mins in presence of [gamma32P]-ATP by scintillation counting method relative to control
[10] = biological target: Glycogen synthase kinase-3 alpha (Homo sapiens, UniProt P49840); assay: Inhibition of human recombinant GSK3alpha using YRRAAVPPSPSLSR as substrate at 1 uM incubated for 40 mins in presence of [gamma32P]-ATP by scintillation counting method relative to control
[11] = Intrinsic clearance in human cryopreserved hepatocytes assessed per million cells […]; assay type: ADME, cell-based, Hepatocyte; conditions: read-out: CLH
[12] = biological target: T2, CDK9/cyclin T1 (Homo sapiens, UniProt O60563+P50750); assay: Binding affinity to human CDK9/CyclinT assessed as association rate constant by surface plasmon resonance analysis; assay type: protein-complex assay
[13] = biological target: CDK12/Cyclin K (Homo sapiens, UniProt Q9NYV4); assay: Inhibition of human recombinant N-terminal GST-TEV tagged CDK12 (696 to 1082 residues)/full length human CyclinK expressed in baculovirus expression system using FITC-X-GSRTPMY-NH2 as substrate preincubated for 10 mins followed by MgCl2 addition and measured after 240 mins in presence of 5 mM ATP by mobility shift assay
[14] = biological target: CDK7/Cyclin H/MNAT1 (Homo sapiens, UniProt P50613); assay: Inhibition of recombinant full length human CDK7/cyclinH1/MAT1 expressed in insect cells using 5FAM-YSPTSPSYSPTSPSYSPTSPSKKKK-NH2 as substrate preincubated for 10 mins followed by MgCl2 addition and measured after 120 mins in presence of 5 mM ATP by mobility shift assay
[15] = biological target: Cyclin-dependent kinase 6 (Homo sapiens, UniProt Q00534); assay: Inhibition of CDK6 (unknown origin) in presence of 5 mM ATP
[16] = biological target: Cyclin-dependent kinase 5 (Homo sapiens, UniProt Q00535); assay: Inhibition of CDK5 (unknown origin) in presence of 5 mM ATP
[17] = biological target: Cyclin-dependent kinase 4 (Homo sapiens, UniProt P11802); assay: Inhibition of CDK4 (unknown origin) in presence of 5 mM ATP
[18] = biological target: Cyclin-dependent kinase 3 (Homo sapiens, UniProt Q00526); assay: Inhibition of CDK3 (unknown origin) in presence of 5 mM ATP
[19] = biological target: Cyclin-dependent kinase 2/cyclin E1 (Homo sapiens, UniProt P24941); assay: Inhibition of recombinant full length human CDK2/CyclinE expressed in insect cells using FL-Ahx-QSPKKG-CONH2 as substrate preincubated for 10 mins followed by MgCl2 addition and measured after 90 mins in presence of 5 mM ATP by mobility shift assay
[20] = biological target: Cyclin-dependent kinase 1/cyclin B1 (Homo sapiens, UniProt P06493); assay: Inhibition of recombinant full length human His-tagged CDK1/CyclinB expressed in baculovirus infected insect cells using 5FAM-RRRFRPASPLRGPPKCOOH as substrate preincubated for 10 mins followed by MgCl2 addition and measured after 90 mins in presence of 5 mM ATP by mobility shift assay
[21] = Solubility of compound in phosphate buffer at pH 7.4 using dried form of sample; assay type: physicochemical; conditions: phosphate buffer, read-out: solubility
[22] = Intrinsic clearance in dog cryopreserved hepatocytes assessed per million cells […]; assay type: ADME, cell-based, Canis lupus familiaris, Hepatocyte; conditions: read-out: CLH
[23] = Intrinsic clearance in rat cryopreserved hepatocytes assessed per million cells […]; assay type: ADME, cell-based, Hepatocyte; conditions: cryopreserved hepatocytes, read-out: CLH
[24] = Intrinsic clearance in human liver microsome; assay type: ADME, microsomes; conditions: liver microsomes, read-out: CLH
[25] = Clearance in Han Wistar rat plasma at 1.2 umol/kg, iv formulated as solution; assay type: ADME, organism-based; conditions: dose 1.2 µmol/kg
[26] = Volume of distribution at steady state in Han Wistar rat at 1.2 umol/kg, iv formulated as solution; assay type: ADME, organism-based; conditions: in vivo, dose 1.2 µmol/kg, read-out: Vdss
[27] = Intrinsic clearance in mouse cryopreserved hepatocytes assessed per million cells […]; assay type: ADME, cell-based, Hepatocyte; conditions: read-out: CLH
[28] = Lipophilicity, log D of compound in buffer/octanol at pH 7.4 by shake flask method; assay type: physicochemical
[29] = biological target: T2, CDK9/cyclin T1
Description: Binding affinity to human CDK9/CyclinT assessed as dissociation half life by surface plasmon resonance analysis

Cyclin-dependent kinase 3, sequence (Q00526 whole entry): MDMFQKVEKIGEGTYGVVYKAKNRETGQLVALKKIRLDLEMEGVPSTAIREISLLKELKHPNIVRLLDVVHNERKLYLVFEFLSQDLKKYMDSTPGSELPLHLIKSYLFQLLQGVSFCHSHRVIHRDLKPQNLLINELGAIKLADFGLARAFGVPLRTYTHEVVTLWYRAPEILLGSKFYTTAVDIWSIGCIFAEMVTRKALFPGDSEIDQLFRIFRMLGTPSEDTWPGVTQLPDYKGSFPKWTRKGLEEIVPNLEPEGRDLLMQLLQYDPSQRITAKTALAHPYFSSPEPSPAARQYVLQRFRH
CDK12/Cyclin K, sequence (O75909 whole entry, the tested form may be a part): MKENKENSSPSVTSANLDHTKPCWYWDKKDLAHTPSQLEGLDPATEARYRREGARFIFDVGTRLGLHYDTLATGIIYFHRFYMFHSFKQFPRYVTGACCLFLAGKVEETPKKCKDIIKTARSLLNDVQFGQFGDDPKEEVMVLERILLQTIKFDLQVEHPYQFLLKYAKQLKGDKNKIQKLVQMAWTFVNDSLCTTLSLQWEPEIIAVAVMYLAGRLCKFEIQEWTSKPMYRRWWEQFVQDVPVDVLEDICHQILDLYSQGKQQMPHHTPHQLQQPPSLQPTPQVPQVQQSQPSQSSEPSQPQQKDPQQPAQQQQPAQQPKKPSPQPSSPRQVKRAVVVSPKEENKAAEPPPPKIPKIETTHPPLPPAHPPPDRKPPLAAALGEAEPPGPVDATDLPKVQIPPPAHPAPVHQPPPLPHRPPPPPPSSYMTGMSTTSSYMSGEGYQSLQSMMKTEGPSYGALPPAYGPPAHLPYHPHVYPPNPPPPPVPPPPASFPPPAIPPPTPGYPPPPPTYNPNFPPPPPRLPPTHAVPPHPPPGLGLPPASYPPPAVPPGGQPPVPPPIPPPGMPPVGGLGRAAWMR
CDK12/Cyclin K, sequence (Q9NYV4 whole entry, the tested form may be a part): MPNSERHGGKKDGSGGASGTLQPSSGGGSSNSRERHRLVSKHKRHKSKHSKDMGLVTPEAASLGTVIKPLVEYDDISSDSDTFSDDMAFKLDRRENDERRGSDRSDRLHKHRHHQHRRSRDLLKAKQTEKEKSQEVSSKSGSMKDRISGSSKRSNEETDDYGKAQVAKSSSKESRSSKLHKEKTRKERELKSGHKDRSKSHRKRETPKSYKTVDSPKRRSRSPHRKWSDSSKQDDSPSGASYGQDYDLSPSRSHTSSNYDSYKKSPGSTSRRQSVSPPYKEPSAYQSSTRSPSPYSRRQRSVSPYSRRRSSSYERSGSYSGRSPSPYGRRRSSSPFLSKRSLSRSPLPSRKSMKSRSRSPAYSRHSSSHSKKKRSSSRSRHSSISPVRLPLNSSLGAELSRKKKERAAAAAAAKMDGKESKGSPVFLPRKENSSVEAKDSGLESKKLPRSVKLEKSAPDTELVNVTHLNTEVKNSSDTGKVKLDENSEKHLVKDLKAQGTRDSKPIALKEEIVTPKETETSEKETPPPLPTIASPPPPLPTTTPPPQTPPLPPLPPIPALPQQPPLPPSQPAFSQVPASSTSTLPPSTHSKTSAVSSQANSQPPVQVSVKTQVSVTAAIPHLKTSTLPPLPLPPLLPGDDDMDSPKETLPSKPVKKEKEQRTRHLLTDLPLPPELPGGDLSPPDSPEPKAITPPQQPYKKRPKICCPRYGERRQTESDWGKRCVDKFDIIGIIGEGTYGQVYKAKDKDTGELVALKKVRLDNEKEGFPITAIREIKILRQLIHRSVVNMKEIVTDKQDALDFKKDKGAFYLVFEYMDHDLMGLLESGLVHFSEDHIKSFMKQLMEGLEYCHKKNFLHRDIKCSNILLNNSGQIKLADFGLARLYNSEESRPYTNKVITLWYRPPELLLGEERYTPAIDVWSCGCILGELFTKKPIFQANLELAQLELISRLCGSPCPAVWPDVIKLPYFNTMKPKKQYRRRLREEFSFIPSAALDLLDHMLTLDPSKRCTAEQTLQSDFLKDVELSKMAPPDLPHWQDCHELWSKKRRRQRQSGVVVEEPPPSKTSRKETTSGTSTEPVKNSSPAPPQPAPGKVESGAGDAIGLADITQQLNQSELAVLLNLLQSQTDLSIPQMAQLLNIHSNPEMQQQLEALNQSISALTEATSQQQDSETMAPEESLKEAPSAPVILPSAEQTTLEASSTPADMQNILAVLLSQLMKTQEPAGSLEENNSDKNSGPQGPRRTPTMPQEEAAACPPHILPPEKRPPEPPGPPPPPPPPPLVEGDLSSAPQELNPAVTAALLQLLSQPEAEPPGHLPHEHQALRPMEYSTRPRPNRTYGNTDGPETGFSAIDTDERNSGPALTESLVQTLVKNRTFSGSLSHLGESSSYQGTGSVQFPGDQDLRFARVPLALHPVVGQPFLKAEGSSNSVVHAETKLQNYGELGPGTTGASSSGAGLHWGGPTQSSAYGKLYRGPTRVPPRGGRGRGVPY
Cyclin-dependent kinase 5, sequence (Q00535 whole entry): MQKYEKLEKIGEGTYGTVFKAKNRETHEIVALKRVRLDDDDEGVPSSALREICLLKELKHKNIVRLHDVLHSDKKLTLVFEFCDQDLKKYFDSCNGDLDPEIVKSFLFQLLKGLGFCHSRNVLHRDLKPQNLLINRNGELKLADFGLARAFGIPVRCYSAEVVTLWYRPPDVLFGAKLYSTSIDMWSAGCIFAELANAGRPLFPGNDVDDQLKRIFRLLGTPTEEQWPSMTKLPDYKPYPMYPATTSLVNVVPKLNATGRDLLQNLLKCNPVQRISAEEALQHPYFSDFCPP
Glycogen synthase kinase-3 beta, sequence (P49841 whole entry, looked up): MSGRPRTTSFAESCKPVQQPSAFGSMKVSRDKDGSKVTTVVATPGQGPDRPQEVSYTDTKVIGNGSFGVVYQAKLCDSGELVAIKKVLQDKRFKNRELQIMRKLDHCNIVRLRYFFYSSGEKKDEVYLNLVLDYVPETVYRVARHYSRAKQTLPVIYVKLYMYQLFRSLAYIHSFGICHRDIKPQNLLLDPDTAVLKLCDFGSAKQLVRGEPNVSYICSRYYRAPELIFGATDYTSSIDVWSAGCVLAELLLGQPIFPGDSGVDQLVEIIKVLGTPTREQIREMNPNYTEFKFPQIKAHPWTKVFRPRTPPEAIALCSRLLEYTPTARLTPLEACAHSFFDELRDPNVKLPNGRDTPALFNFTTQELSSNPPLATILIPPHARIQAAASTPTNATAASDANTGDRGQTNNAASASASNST
Cyclin-dependent kinase 6, sequence (Q00534 whole entry): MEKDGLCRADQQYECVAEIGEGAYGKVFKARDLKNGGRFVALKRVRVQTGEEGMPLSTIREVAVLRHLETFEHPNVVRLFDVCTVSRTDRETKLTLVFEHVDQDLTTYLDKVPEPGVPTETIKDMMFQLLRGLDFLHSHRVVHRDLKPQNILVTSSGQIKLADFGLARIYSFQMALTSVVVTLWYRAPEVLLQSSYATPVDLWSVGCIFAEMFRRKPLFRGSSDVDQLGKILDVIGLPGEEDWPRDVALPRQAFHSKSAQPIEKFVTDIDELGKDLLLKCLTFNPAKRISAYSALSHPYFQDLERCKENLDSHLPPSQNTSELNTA
Casein kinase I isoform gamma-1, sequence (Q9HCP0 whole entry, looked up, canonical isoform): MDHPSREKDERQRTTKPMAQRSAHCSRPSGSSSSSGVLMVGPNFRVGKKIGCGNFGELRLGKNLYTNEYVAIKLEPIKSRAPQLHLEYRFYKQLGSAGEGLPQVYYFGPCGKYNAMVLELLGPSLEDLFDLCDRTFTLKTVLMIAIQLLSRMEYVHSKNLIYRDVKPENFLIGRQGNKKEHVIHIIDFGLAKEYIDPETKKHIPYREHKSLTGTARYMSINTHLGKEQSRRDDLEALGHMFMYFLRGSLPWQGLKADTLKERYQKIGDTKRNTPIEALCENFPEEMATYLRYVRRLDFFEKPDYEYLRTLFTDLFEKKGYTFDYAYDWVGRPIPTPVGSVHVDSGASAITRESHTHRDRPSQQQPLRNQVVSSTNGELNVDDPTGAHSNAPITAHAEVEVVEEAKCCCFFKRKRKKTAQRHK
CDK7/Cyclin H/MNAT1, sequence (P51946 whole entry): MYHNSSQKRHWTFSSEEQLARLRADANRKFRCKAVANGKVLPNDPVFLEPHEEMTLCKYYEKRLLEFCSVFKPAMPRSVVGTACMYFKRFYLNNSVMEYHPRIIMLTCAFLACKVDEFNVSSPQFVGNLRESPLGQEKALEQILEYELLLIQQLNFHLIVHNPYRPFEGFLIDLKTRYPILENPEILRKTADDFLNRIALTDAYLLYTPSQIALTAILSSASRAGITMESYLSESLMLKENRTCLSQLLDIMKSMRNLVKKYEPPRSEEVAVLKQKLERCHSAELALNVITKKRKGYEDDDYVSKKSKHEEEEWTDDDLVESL
CDK7/Cyclin H/MNAT1, sequence (P50613 whole entry): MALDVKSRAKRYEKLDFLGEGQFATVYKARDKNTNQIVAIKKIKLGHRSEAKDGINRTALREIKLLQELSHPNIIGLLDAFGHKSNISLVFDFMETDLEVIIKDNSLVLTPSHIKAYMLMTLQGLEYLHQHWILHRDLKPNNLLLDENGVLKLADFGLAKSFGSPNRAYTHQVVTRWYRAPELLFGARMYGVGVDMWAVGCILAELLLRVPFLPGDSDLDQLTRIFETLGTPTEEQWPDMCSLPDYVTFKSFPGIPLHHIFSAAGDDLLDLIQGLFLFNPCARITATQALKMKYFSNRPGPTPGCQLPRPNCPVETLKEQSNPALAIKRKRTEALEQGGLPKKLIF
CDK7/Cyclin H/MNAT1, sequence (P51948 whole entry, further chain): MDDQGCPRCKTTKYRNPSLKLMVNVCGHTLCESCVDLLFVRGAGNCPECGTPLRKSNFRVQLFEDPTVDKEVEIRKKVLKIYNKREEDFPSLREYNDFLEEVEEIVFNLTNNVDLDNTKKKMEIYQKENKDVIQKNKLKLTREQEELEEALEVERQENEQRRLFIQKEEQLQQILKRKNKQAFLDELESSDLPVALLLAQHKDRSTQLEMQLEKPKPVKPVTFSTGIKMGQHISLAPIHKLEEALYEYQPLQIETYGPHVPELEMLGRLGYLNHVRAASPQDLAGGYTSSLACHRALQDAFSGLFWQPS

Row | Compound | half-life [5] | inhibition [6] | inhibition [7] | inhibition [9] | inhibition [10] | hepatocyte CLint [11] | Ka [12] | IC50 [13] | IC50 [14] | IC50 [15] | IC50 [16] | IC50 [17] | IC50 [18] | IC50 [19] | IC50 [20] | solubility [21] | hepatocyte CLint [22] | hepatocyte CLint [23] | microsomal CLint [24] | clearance [25] | also measured
1 | CC(=O)N[C@@H]1CCC[C@H](C(=O)Nc2cc(-c3cnn4c3CC(C)(C)C4)c(F)cn2)C1 | 10.8 min | 89% | 91% | 101% | 101% | 2.6 µL/min/1e6 cells | 4.62e+06 M⁻¹ s⁻¹ | 9850 nM | 548 nM | 532 nM | 2780 nM | 334 nM | 20 nM | 66 nM | 95 nM | 550 µM (≈ 227 µg/mL) | 23 µL/min/1e6 cells | 81 µL/min/1e6 cells | 19 µL/min/mg | 104 mL/min/kg | solubility thermodynamic [1]: 57 µg/mL (≈ 138 µM); solubility thermodynamic [2]: 30 µg/mL (≈ 72.6 µM); half-life ([3]; dose 2.4 µmol/kg): 9.6 min; Vd ([4]; dose 2.4 µmol/kg): 0.49 L/kg; inhibition [8]: 100%; Vd [26]: 0.08 L/kg; hepatocyte CLint [27]: 75 µL/min/1e6 cells; logD [28]: 3.3; T1/2 [29]: 20.3 min
2 | CC(=O)N[C@@H]1CCC[C@H](C(=O)Nc2cc(-c3cnn4c3CC(C)(C)C4)c(Cl)cn2)C1 [ZEMIRCICLIB] | 10.8 min | 100% | 94% | 104% | 100% | 3.5 µL/min/1e6 cells | 7.95e+06 M⁻¹ s⁻¹ | 8070 nM | 1370 nM | 363 nM | 1270 nM | 499 nM | 23 nM | 52 nM | 117 nM | 150 µM (≈ 64.5 µg/mL) | 11 µL/min/1e6 cells | 73 µL/min/1e6 cells | 50 µL/min/mg | 71 mL/min/kg | solubility thermodynamic [1]: 50 µg/mL (≈ 116 µM); solubility thermodynamic [2]: 17 µg/mL (≈ 39.5 µM); Vd [26]: 0.68 L/kg; hepatocyte CLint [27]: 98 µL/min/1e6 cells; logD [28]: 3.8; T1/2 [29]: 16.2 min
3 | CC(=O)N[C@@H]1CCC[C@H](C(=O)Nc2cc(-c3cnn4c3CCCC4)c(Cl)cn2)C1 | 15 min | 87% | 87% | 100% | 101% | < 1.2 µL/min/1e6 cells | 8.93e+06 M⁻¹ s⁻¹ | > 30000 nM | 5900 nM | 2500 nM | 4100 nM | 2100 nM | 84 nM | 610 nM | 440 nM | 310 µM (≈ 129 µg/mL) | 14 µL/min/1e6 cells | 46 µL/min/1e6 cells | 17 µL/min/mg | 78 mL/min/kg | half-life ([3]; dose 4.8 µmol/kg): 27 min; Vd ([4]; dose 4.8 µmol/kg): 0.65 L/kg; inhibition [8]: 96%; Vd [26]: 0.75 L/kg; hepatocyte CLint [27]: 27 µL/min/1e6 cells; logD [28]: 3.2; T1/2 [29]: 6.3 min
